Test results reported in EPA's ToxRefDB 2.
Values belong to the molecule of their own block, whether it stands above or below them.

Columns and labels:
[1] = tested on: rat; settings: Subchronic oral toxicity in rodents, sprague dawley, Gavage/Intubation, dose end: 13 week, group: systemic, systemic / pathology microscopic / adrenal gland / congestion + systemic / pathology microscopic / brain / congestion + systemic / pathology…
[2] = tested on: rat; settings: Prenatal developmental toxicity study, sprague dawley, Oral, Gavage/Intubation, dose end: 15 GD
[3] = tested on: rat; settings: Subchronic oral toxicity in rodents, sprague dawley, Gavage/Intubation, dose end: 90 day, group: systemic, systemic / in life observation / body weight / body weight + systemic / in life observation / body weight / body weight gain
[4] = tested on: rat; settings: Subchronic dermal toxicity, sprague dawley, Topical, dose end: 90 day, group: systemic, systemic / pathology microscopic / liver / hypertrophy
[5] = tested on: rat; settings: Combined chronic toxicity/carcinogenicity, sprague dawley, Oral, Feed, dose end: 24 month, group: systemic
[6] = tested on: mouse; settings: Carcinogenicity; cd1; Oral; Feed; dose end: 18 month; group: systemic; systemic / in life observation / body weight / body weight
[7] = tested on: dog; settings: Chronic toxicity, beagle, Oral, Feed, dose end: 52 week, group: systemic
[8] = tested on: mouse; settings: Carcinogenicity; cd1; Oral; Feed; dose end: 78 week; group: systemic; systemic / in life observation / body weight / body weight + systemic / in life observation / body weight / body weight gain
[9] = tested on: rabbit; settings: Prenatal developmental toxicity study, new zealand white, Oral, Gavage/Intubation, dose end: 18 GD
[10] = tested on: rat; settings: Subchronic oral toxicity in rodents, sprague dawley, Gavage/Intubation, dose end: 90 day, group: systemic
[11] = tested on: rat; settings: Subchronic oral toxicity in rodents, sprague-dawley, Gavage/Intubation, dose end: 90 day, group: systemic, systemic / in life observation / body weight / body weight gain + systemic / in life observation / clinical signs / exophthalamus + systemic…
[12] = tested on: rat; settings: Combined chronic toxicity/carcinogenicity, sprague dawley, Oral, Feed, dose end: 104 week, group: systemic
[13] = tested on: mouse; settings: Sub-acute repeat dose toxicity; b6c3f1; Oral; Gavage/Intubation; dose end: 14 day; group: systemic; systemic / in life observation / clinical signs / distended abdomens + systemic / in life observation / clinical signs / fur (altered …
[14] = tested on: rat; settings: Subchronic oral toxicity in rodents, fischer, Feed, dose end: 13 week
[15] = tested on: mouse; settings: Carcinogenicity, b6c3f1, Oral, Feed, dose end: 105 week, group: systemic
[16] = tested on: mouse; settings: Subchronic oral toxicity in rodents, b6c3f1, Feed, dose end: 13 week, group: systemic
[17] = tested on: rat; settings: Fertility (Segment I), sprague dawley, Oral, Gavage/Intubation, dose end: 63 day, group: parental
[18] = tested on: rat; settings: Sub-acute repeat dose toxicity; sprague dawley; Oral; Gavage/Intubation; dose end: 1 month; group: systemic; systemic / clinical chemistry / protein / protein + systemic / clinical chemistry / alanine aminotransferase (alt/sgpt) / alanine …
[19] = tested on: rat; settings: Fertility (Segment I), sprague dawley, Oral, Gavage/Intubation, dose end: 6 GD
[20] = tested on: dog; settings: Chronic toxicity, beagle, Oral, Gavage/Intubation, dose end: 26 week, group: systemic
[21] = tested on: rat; settings: Chronic toxicity; sprague dawley; Oral; Gavage/Intubation; dose end: 26 week; group: systemic; systemic / clinical chemistry / alanine aminotransferase (alt/sgpt) / alanine aminotransferase (alt/sgpt) + systemic / clinical chemistry / …
[22] = tested on: dog; settings: Subchronic oral toxicity in nonrodent, beagle, Gavage/Intubation, dose end: 1 month, group: systemic
[23] = tested on: primate; settings: Sub-acute repeat dose toxicity; macaque; Oral; Gavage/Intubation; dose end: 35 day; group: systemic; systemic / clinical chemistry / bilirubin / total bilirubin
[24] = tested on: rat; settings: Combined chronic toxicity/carcinogenicity; fischer; Oral; Gavage/Intubation; dose end: 2 year; group: systemic; systemic / pathology microscopic / kidney / cyst + systemic / pathology microscopic / kidney / hyperplasia + systemic / pathology …
[25] = tested on: mouse; settings: Carcinogenicity, b6c3f1, Oral, Gavage/Intubation, dose end: 2 year, group: systemic
[26] = tested on: mouse; settings: Subchronic oral toxicity in rodents, b6c3f1, Gavage/Intubation, dose end: 13 week, group: systemic, systemic / pathology microscopic / kidney / fibrosis + systemic / pathology microscopic / kidney / inflammation + systemic / pathology …
[27] = tested on: rat; settings: Subchronic oral toxicity in rodents, fischer, Gavage/Intubation, dose end: 13 week, group: systemic
[28] = group: developmental, developmental / developmental malformation / bone / [other] + systemic / in life observation / body weight / fetal weight
[29] = group: maternal, systemic / in life observation / body weight / body weight gain + systemic / in life observation / food consumption / food consumption
[30] = group: maternal, systemic / in life observation / body weight / body weight gain + systemic / in life observation / food consumption / food consumption + …
[31] = systemic / clinical chemistry / aspartate aminotransferase (ast/sgot) / aspartate aminotransferase (ast/sgot)
[32] = systemic / in life observation / mortality / mortality + systemic / pathology gross / mammary gland / cyst + systemic / pathology gross / …
[33] = systemic / in life observation / clinical signs / feces, discoloration
[34] = systemic / organ weight / adrenal gland / absolute + systemic / organ weight / adrenal gland / relative to body weight + systemic / organ …
[35] = group: developmental, developmental / developmental malformation / bone / supernumerary
[36] = group: developmental, developmental / developmental malformation / bone / supernumerary + developmental / developmental malformation / bone / short supernumerary…
[37] = systemic / in life observation / body weight / body weight + systemic / organ weight / liver / absolute + systemic / organ weight / liver / …
[38] = systemic / in life observation / body weight / body weight + systemic / in life observation / body weight / body weight gain
[39] = systemic / in life observation / body weight / body weight + systemic / in life observation / body weight / body weight gain + systemic / …
[40] = group: developmental, developmental / offspring survival late / [other] / [other]
[41] = group: maternal, reproductive / offspring survival early / birth index / birth index
[42] = group: maternal, reproductive / reproductive performance / estrous cycle / length
[43] = group: systemic, systemic / pathology microscopic / spleen / hemosiderosis + systemic / in life observation / clinical signs / fur (altered appearance)
[44] = systemic / in life observation / body weight / body weight + systemic / hematology / reticulocyte / reticulocyte
[45] = systemic / in life observation / body weight / body weight + systemic / in life observation / body weight / body weight gain + systemic / in…
[46] = group: maternal, reproductive / reproductive performance / estrous cycle / abnormal
[47] = group: parental, systemic / in life observation / body weight / body weight gain + systemic / in life observation / clinical signs / salivation + systemic / …
[48] = systemic / organ weight / adrenal gland / absolute + systemic / organ weight / adrenal gland / relative to body weight
[49] = systemic / organ weight / adrenal gland / absolute + systemic / organ weight / adrenal gland / relative to body weight + systemic / clinical…
[50] = systemic / in life observation / body weight / body weight + systemic / organ weight / thymus / relative to body weight
[51] = systemic / in life observation / body weight / body weight + systemic / organ weight / thymus / relative to body weight + systemic / …
[52] = systemic / pathology microscopic / lung / hyperplasia
[53] = systemic / pathology microscopic / lung / hyperplasia + systemic / pathology microscopic / liver / adenoma + systemic / pathology …
[54] = systemic / in life observation / clinical signs / motor activity + systemic / in life observation / body weight / body weight + systemic / …
[55] = systemic / in life observation / clinical signs / salivation

SMILES: ClNc1nc(NCl)nc(NCl)n1 [Trichloromelamine]
LEL [1]: 150 mg/kg/day
LOAEL [1]: 150 mg/kg/day
NEL [1]: 30 mg/kg/day
NOAEL [1]: 30 mg/kg/day

SMILES: CC(=O)N(CCN(C(C)=O)C(C)=O)C(C)=O [Tetraacetylethylenediamine]
LEL [2, 28]: 1000 mg/kg/day
LOAEL [2, 28]: 1000 mg/kg/day
NEL [2, 28]: 200 mg/kg/day
NOAEL [2, 28]: 200 mg/kg/day
LEL [2, 29]: 200 mg/kg/day
LOAEL [2, 29]: 200 mg/kg/day
NEL [2, 30]: 40 mg/kg/day
NOAEL [2, 30]: 40 mg/kg/day
LEL [3]: 25 mg/kg/day
LOAEL [3]: 25 mg/kg/day
NEL [3]: < 25 mg/kg/day
NOAEL [3]: < 25 mg/kg/day
LEL [4]: 2000 mg/kg/day
LOAEL [4]: > 2000 mg/kg/day
NEL [4]: 200 mg/kg/day
NOAEL [4]: ≥ 2000 mg/kg/day

SMILES: CC1(C)NC(=O)NC1=O [5,5-Dimethylhydantoin]
LEL [5, 31]: 100 mg/kg/day
NEL [5, 31]: < 100 mg/kg/day
LOAEL [5, 32]: 1000 mg/kg/day
NOAEL [5, 32]: 320 mg/kg/day
LEL [6]: 321 mg/kg/day
LOAEL [6]: > 1010 mg/kg/day
NEL [6]: 101 mg/kg/day
NOAEL [6]: ≥ 1010 mg/kg/day
LEL [7, 33]: 120 mg/kg/day
NEL [7, 33]: < 120 mg/kg/day
LOAEL [7, 34]: 1510 mg/kg/day
NOAEL [7, 34]: 342 mg/kg/day
LEL [8]: 1000 mg/kg/day
LOAEL [8]: 1000 mg/kg/day
NEL [8]: 300 mg/kg/day
NOAEL [8]: 300 mg/kg/day
LEL [9, 35]: 500 mg/kg/day
LOAEL [9, 35]: 500 mg/kg/day
NEL [9, 36]: 100 mg/kg/day
NOAEL [9, 36]: 100 mg/kg/day
LEL [9, 29]: 1000 mg/kg/day
LOAEL [9, 29]: 1000 mg/kg/day
NEL [9, 29]: 500 mg/kg/day
NOAEL [9, 29]: 500 mg/kg/day
LEL [10, 37]: 1020 mg/kg/day
LOAEL [10, 37]: 1020 mg/kg/day
NOAEL [10, 37]: 303 mg/kg/day
NEL ([10]; systemic / organ weight / kidney / absolute + systemic / organ weight / liver / absolute + systemic / organ weight / liver / relative to …): 303 mg/kg/day
LEL [11]: 1050 mg/kg/day
LOAEL [11]: > 1050 mg/kg/day
NEL [11]: 100 mg/kg/day
NOAEL [11]: ≥ 1050 mg/kg/day
NEL [12, 38]: 300 mg/kg/day
NOAEL [12, 38]: 300 mg/kg/day
LEL [12, 39]: 1000 mg/kg/day
LOAEL [12, 39]: 1000 mg/kg/day

SMILES: O=C(O)c1ccccc1 [Benzoic acid]
LEL [13]: 642 mg/kg/day
LOAEL [13]: > 642 mg/kg/day
NEL [13]: 321 mg/kg/day
NOAEL [13]: ≥ 642 mg/kg/day

SMILES: CC(C)(C)c1cc(O)ccc1O [tert-Butylhydroquinone]
LEL [14, 40]: 750 mg/kg/day
NEL [14, 40]: 400 mg/kg/day
LOAEL [14, 41]: 1000 mg/kg/day
NOAEL [14, 41]: 500 mg/kg/day
LEL [14, 42]: 200 mg/kg/day
NEL [14, 42]: < 200 mg/kg/day
LOAEL ([14]; group: systemic, systemic / in life observation / body weight / body weight + systemic / in life observation / body weight / offspring (pup) weight): 400 mg/kg/day
NOAEL ([14]; group: systemic, systemic / in life observation / body weight / body weight + systemic / in life observation / body weight / offspring (pup) weight + …): 200 mg/kg/day
LEL [14, 43]: 200 mg/kg/day
NEL [14, 43]: < 200 mg/kg/day
LOAEL ([15]; systemic / in life observation / body weight / body weight): 600 mg/kg/day
LEL [15, 44]: 600 mg/kg/day
NEL [15, 44]: 300 mg/kg/day
NOAEL [15, 44]: 300 mg/kg/day
LOAEL [16, 38]: 1950 mg/kg/day
LEL [16, 39]: 1950 mg/kg/day
NEL [16, 39]: 880 mg/kg/day
NOAEL [16, 39]: 880 mg/kg/day

LEL [19, 46]: 20 mg/kg/day
NEL [19, 46]: 2 mg/kg/day
SMILES: Cc1cc2c(cc1C(F)(F)F)N(C(=O)Nc1ccc(Oc3cccnc3C)nc1)CC2.Cl
LOAEL [17, 45]: > 200 mg/kg/day
NEL [17, 45]: 2 mg/kg/day
NOAEL [17, 45]: ≥ 200 mg/kg/day
LEL ([17]; systemic / in life observation / body weight / body weight gain): 20 mg/kg/day
LEL [18]: 2 mg/kg/day
LOAEL [18]: > 200 mg/kg/day
NEL [18]: < 2 mg/kg/day
NOAEL [18]: ≥ 200 mg/kg/day
LOAEL [19, 46]: > 20 mg/kg/day
NOAEL [19, 46]: ≥ 20 mg/kg/day
LEL [19, 47]: 2 mg/kg/day
LOAEL [19, 47]: > 20 mg/kg/day
NEL [19, 47]: 0.2 mg/kg/day
NOAEL [19, 47]: ≥ 20 mg/kg/day
LEL [20, 48]: 2 mg/kg/day
NEL [20, 48]: < 2 mg/kg/day
LOAEL [20, 49]: > 300 mg/kg/day
NOAEL [20, 49]: ≥ 300 mg/kg/day
LEL [21]: 2 mg/kg/day
LOAEL [21]: > 100 mg/kg/day
NEL [21]: < 2 mg/kg/day
NOAEL [21]: ≥ 100 mg/kg/day
LEL [22, 50]: 2 mg/kg/day
NEL [22, 50]: < 2 mg/kg/day
LOAEL [22, 51]: > 1000 mg/kg/day
NOAEL [22, 51]: ≥ 1000 mg/kg/day
LEL [23]: 1000 mg/kg/day
LOAEL [23]: > 1000 mg/kg/day
NEL [23]: 300 mg/kg/day
NOAEL [23]: ≥ 1000 mg/kg/day

SMILES: c1ccc2occc2c1 [2,3-Benzofuran]
LEL [24]: 30 mg/kg/day
LOAEL [24]: 30 mg/kg/day
NEL [24]: < 30 mg/kg/day
NOAEL [24]: < 30 mg/kg/day
LOAEL [25, 52]: 60 mg/kg/day
NOAEL [25, 52]: < 60 mg/kg/day
LEL [25, 53]: 60 mg/kg/day
NEL [25, 53]: < 60 mg/kg/day
LEL [26]: 250 mg/kg/day
LOAEL [26]: 250 mg/kg/day
NEL [26]: 125 mg/kg/day
NOAEL [26]: 125 mg/kg/day
LOAEL [27, 54]: 125 mg/kg/day
NOAEL [27, 54]: 62.5 mg/kg/day
LEL [27, 55]: 31.2 mg/kg/day
NEL [27, 55]: < 31.2 mg/kg/day
